Read-outs that look alike come from different tables or passages of the source. One block for each compound: values may come before it.
What was measured:
CcGSTFuA2461 = target: T1, CcGSTFuA2461; experiment: inhibition of MUA esterase activity, fluorescence; type: biochemical, Coprinopsis cinerea; settings: competitive vs MUA; no GSH; 30 mM Tris-HCl pH 8; 2 µM enzyme; read-out: PcGSTFuA1 / ANS
T1 construct: gene GSTFuA2461; full length, untagged, pET-3d, E. coli BL21(DE3) pSBET; primers encode N-term MAITFYDL, C-term TGSKL
From the text: inhibition of MUA esterase activity, fluorescence on CcGSTFuA2461

CcGSTFuA6800 = tested on: T2, CcGSTFuA6800; experiment: esterase activity, fluorescence; type: biochemical, Coprinopsis cinerea; settings: no GSH
T2 construct: gene GSTFuA6800; full length, untagged, pET-3d, E. coli BL21(DE3) pSBET; primers encode N-term MAIILYDL, C-term YTTVV
From the text: esterase activity, fluorescence on CcGSTFuA6800

CcGSTFuA6801 [1] = target: T3, CcGSTFuA6801; experiment: ANS displacement, fluorescence; type: binding, Coprinopsis cinerea; settings: TE buffer pH 8.0; 3 µM enzyme; ANS probe; read-out: PcGSTFuA3 / ANS
T3 construct: gene GSTFuA6801; full length, untagged, pET-3d, E. coli BL21(DE3) pSBET; primers encode N-term MAITFYDI, C-term YHTVA
From the text: ANS displacement, fluorescence on CcGSTFuA6801

PcGSTFuA1 = target: T4, PcGSTFuA1 (Phanerodontia chrysosporium, UniProt I6ZUH3); experiment: ANS displacement, fluorescence; type: binding
T4 construct: full length, untagged, pET-3d, E. coli BL21(DE3) pSBET; Ala inserted after Met1; dimer; primers encode N-term MAQPIVF, C-term EQVDV
From the text: ANS displacement, fluorescence on PcGSTFuA1

PcGSTFuA3 [2] = target: T5, PcGSTFuA3; experiment: ANS displacement, fluorescence; type: binding, Phanerodontia chrysosporium; settings: TE buffer pH 8.0; 3 µM enzyme; ANS probe at L-site overlapping G-site
T5 construct: gene GSTFuA3; full length, untagged, pET-3d, E. coli BL21(DE3) pSBET; Ala inserted after Met1; dimer; primers encode N-term MASLEPII, C-term EFVDV
From the text: ANS displacement, fluorescence on PcGSTFuA3

PcGSTFuA4 = target: T6, PcGSTFuA4 (Phanerodontia chrysosporium, UniProt M1NR33); experiment: ANS displacement, fluorescence; type: binding; settings: TE buffer pH 8.0; 3 µM enzyme; ANS probe at L-site overlapping G-site
T6 construct: full length, untagged, pET-3d, E. coli BL21(DE3) pSBET; primers encode N-term MADVITLY, C-term AHVDL
From the text: ANS displacement, fluorescence on PcGSTFuA4

CcGSTFuA6820 = target: T7, CcGSTFuA6820; experiment: inhibition of MUA esterase activity, fluorescence; type: biochemical, Coprinopsis cinerea; settings: non-competitive vs MUA; no GSH; 30 mM Tris-HCl pH 8; 2 µM enzyme; read-out: PcGSTFuA4 / ANS
T7 construct: gene GSTFuA6820; full length, untagged, pET-3d, E. coli BL21(DE3) pSBET; primers encode N-term MAITLYDS, C-term YQAVH
From the text: inhibition of MUA esterase activity, fluorescence on CcGSTFuA6820

PcGSTFuA2 [3] = tested on: T8, PcGSTFuA2; experiment: esterase activity, fluorescence; type: biochemical, Phanerodontia chrysosporium; settings: no GSH; 30 mM Tris-HCl pH 8
T8 construct: gene GSTFuA2; full length, untagged, pET-3d, E. coli BL21(DE3) pSBET; Ala inserted after Met1; dimer; primers encode N-term MASQPIVF, C-term ERADD
From the text: esterase activity, fluorescence on PcGSTFuA2

PcGSTFuA2 [4] = target: T8, PcGSTFuA2; experiment: ANS displacement, fluorescence; type: binding, Phanerodontia chrysosporium; settings: TE buffer pH 8.0; 3 µM enzyme; ANS probe at L-site overlapping G-site
From the text: ANS displacement, fluorescence on PcGSTFuA2

PcGSTFuA3 [5] = tested on: T5, PcGSTFuA3; experiment: GSH conjugation, absorbance […] nm; type: biochemical, Phanerodontia chrysosporium; settings: 5 mM GSH; pH 6.5; 2% acetonitrile
CcGSTFuA6801 [6] = tested on: T3, CcGSTFuA6801; experiment: GSH conjugation, absorbance […] nm; type: biochemical, Coprinopsis cinerea; settings: 5 mM GSH; pH 6.5; 2% acetonitrile

T6 sequence (M1NR33 entry or part of it): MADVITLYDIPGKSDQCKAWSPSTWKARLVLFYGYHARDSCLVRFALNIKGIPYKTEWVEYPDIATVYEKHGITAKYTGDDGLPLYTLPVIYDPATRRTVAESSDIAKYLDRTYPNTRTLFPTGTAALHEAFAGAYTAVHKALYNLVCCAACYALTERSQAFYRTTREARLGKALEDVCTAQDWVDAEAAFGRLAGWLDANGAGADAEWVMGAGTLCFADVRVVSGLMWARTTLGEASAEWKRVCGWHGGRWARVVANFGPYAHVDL
T4 sequence (I6ZUH3 entry or part of it): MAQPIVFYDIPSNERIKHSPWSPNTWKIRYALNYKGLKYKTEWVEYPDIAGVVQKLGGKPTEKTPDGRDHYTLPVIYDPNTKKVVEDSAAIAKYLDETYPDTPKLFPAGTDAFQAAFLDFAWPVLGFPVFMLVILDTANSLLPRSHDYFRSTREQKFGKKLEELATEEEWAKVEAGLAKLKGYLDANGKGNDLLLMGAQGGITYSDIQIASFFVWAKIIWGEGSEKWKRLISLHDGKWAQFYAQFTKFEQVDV

Compound: O=C(O)c1ccc(Cl)c([N+](=O)[O-])c1 [4-chloro-3-nitrobenzoic acid]
Ki (CcGSTFuA2461): 287 ± 29.7 µM

Compound: CC(=O)Oc1ccc2c(c1)Oc1cc(OC(C)=O)ccc1C21OC(=O)c2cc(CCl)ccc21 [CMFDA]
Km (CcGSTFuA6800; 50 mM phosphate pH 8.0, read-out: CcGSTFuA6800): 0.153 ± 0.023 µM

Compound: O=C(O)c1cc(O)c(O)c(O)c1 [Gallic acid]
Ki (CcGSTFuA6820): 566 ± 16.5 µM
Ki (CcGSTFuA2461): 114 ± 8.9 µM

Compound: S=C=NCCc1ccccc1 [phenethyl-ITC]
Km (PcGSTFuA3 [5]): 53.2 ± 5.37 µM
Km (CcGSTFuA6801 [6]): 41.6 ± 3.73 µM

Further lines, results first:

IC50 (CcGSTFuA6801 [1]): 327 ± 50.6 µM
IC50 (PcGSTFuA1): 62.3 ± 1.2 µM
IC50 (PcGSTFuA3 [2]): 68.4 ± 25.3 µM
IC50 (PcGSTFuA4): 147 ± 5.1 µM
Compound: COc1cc(/C=C/C=O)ccc1O [Coniferaldehyde]

Km (CcGSTFuA6800; 30 mM Tris-HCl pH 8, read-out: PcGSTFUA2): 25.4 ± 4.37 µM
Km (PcGSTFuA2 [3]): 23.5 ± 6.2 µM
Compound: CC(=O)Oc1ccc2c(C)cc(=O)oc2c1 [MUA]

IC50 (PcGSTFuA2 [4]): 89.3 ± 2.8 µM
IC50 (CcGSTFuA6801 [1]): 276 ± 97.8 µM
IC50 (PcGSTFuA1): 62.5 ± 1.6 µM
Ki (CcGSTFuA6820): 594 ± 37.6 µM
IC50 (PcGSTFuA3 [2]): 37.2 ± 3.8 µM
IC50 (PcGSTFuA4): 199 ± 25.2 µM
Compound: COc1cc(C=O)cc(OC)c1O [Syringaldehyde]

IC50 (PcGSTFuA2 [4]): 84.7 ± 5.2 µM
Compound: COc1cc(C=O)ccc1O [Vanillin]

— paper PMC3835915, “Diversification of Fungal Specific Class A Glutathione Transferases in Saprotrophic Fungi” (PLoS ONE, 2013)
